From patent US20250250308A1, “METHODS AND COMPOSITIONS WITH ANTIFUNGAL ACTIVITY” (priority 2022, published 2025)
Where “and” joins values, the source holds several entries; their conditions need not be identical. Identical values can stand only once. Entries after “also recorded” stand apart in the source; their conditions may differ. Square brackets hold non-standard residues; d marks the D form. Peptide text beside a SMILES is read from it.

Legend:
C. albicans [1] = experiment: Killing of C. elegans by C. albicans (survival of infected nematodes); format: in vivo; conditions: for Protection of C. elegans from C. albicans infection (survival): 1 nM peptide; for Median survival: C. albicans infected C. elegans exposed to 1 nM peptide, one value per trial
Experimental: The α7 helix is sufficient to protect C. elegans and inhibit surface adhesion. Based on this structural characterization, fragments of EntV were examined to identify those structural moieties that retained antifungal activity. Synthetic peptides were generated of each of the four alpha helices (plus two flanking amino acids) from the active C-terminus of EntV—α4, α5, α6 and α7 (FIG. 1A) as well as an α4-α6 construct. The peptides were tested for their ability to protect C. elegans against C. albicans infection as established in previous work (Cruz et al., 2013; Graham et al., 2017).
Killing of C. elegans by C. albicans. The methodology used for the C. elegans infection assays was performed, with a few modifications, as described ((Breger et al., 2007; Cruz et al., 2013; Graham et al., 2017; Peleg et al., 2008)). Briefly, C. elegans glp-4(bn2); sek-1(km-4) (Breger et al., 2007) nematodes were propagated and maintained on E. coli strain OP50(Brenner, 1974) that was seeded onto nematode growth medium (NGM) agar using standard techniques (Hope, 1999). To synchronize the animals, L1 stage worms on non-starved plates were washed off, filtered through a 10 μm filter (pluriSelect, pluriStrainer 10 μm), harvested by centrifugation, transferred to OP50 seeded plates, and grown to the L4 stage. To prepare the infection plates, C. albicans strain […] (Gillum et al., 1984) was grown in YPD broth for 24 h at 37° C. with agitation. 500 μl of the culture was plated onto BHI solid medium containing gentamycin (10 μg/ml) and grown for 24 h at 37° C. The synchronized, L4 C. elegans were washed off the OP50 plates in 2 ml sterile M9 buffer and washed once, centrifuging at 750×g for 30 seconds to collect animals. Animals were infected by placing them on the SC5314 lawn for 4 h at 25° C. Following this exposure, they were washed off the plate and washed four times with 2 ml of sterile M9. The nematodes were then pipetted (˜30 per well with 2 wells per condition for a total of ˜60 worms assayed) into six-well plates with 2 ml of liquid medium (20% BHI broth and 80% M9) containing the indicated concentrations of test compounds. Plates were incubated at 25° C., and worm death was scored daily. Kaplan-Meier survival curves were generated and analyzed as described in the quantification and statistical analysis section.

[2] = Peptide serum stability assay; format: in vitro ADME; conditions: 10% human serum, 37° C., HPLC; read-out: Peptide remaining after 24 hours in human serum
Experimental: Peptide serum stability assay. One mL of RPMI supplemented with 10% (v/v) of human serum (type AB) were aliquoted and temperature-equilibrated at 37° C. for 15 min before adding a concentrated stock peptide solution resulting in a final peptide concentration of 100 μM. For each time point, 100 μL of the reaction solution was removed and added to 200 μL 96% ethanol for precipitation of serum proteins. The sample was cooled (4° C.) for 15 min and then spun at 18,000 g for 2 min to pellet the precipitated serum proteins. The reaction supernatant was analyzed using HPLC with absorbance detected at 280 nm. The peptide peak was detected first without serum treatment to assess the area under the curve for the peptide of interest. At each time point the area under the curve was calculated by HPLC and then divided by the untreated peptide area under the curve to determine the percent remaining.

C. albicans [3] = experiment: Mouse OPC (oropharyngeal candidiasis) model; format: in vivo; conditions: 100 nM in drinking water for 5 days following inoculation
Experimental: Mouse OPC model. The efficacy of EntV fragments were tested in the OPC model as described (Graham et al., 2017; Solis and Filler, 2012). Mice were immunosuppressed by injecting 225 mg/kg cortisone acetate subcutaneously 1 d before inoculation, and subsequently on days 1 and 3 of the infection. Group size was 6-8. To prepare the inoculum, 1 ml of C. albicans (SC5314) overnight culture grown at 30° C. in YPD broth was washed twice in PBS before resuspension in sterile Hanks' balanced salt solution (HBSS) at a concentration of 1×10^6 cells/mL. Calcium alginate swabs were soaked in this inoculum for 5 minutes prior to inoculation. Mice were anesthetized using ketamine and xylazine and placed on pre-warmed isothermal pads and the swabs were placed sublingually for 75 min. Mice were given additional doses of ketamine (50 mg/kg), as necessary. After inoculation, mice were given drinking water with EntV fragments or DMSO (0.01%) in the drinking water ad libitum. Mice were euthanized at 5 d after inoculation, unless noted. The tongues were excised and cut in half laterally for tissue histology and assessment of fungal burden.
For tissue histology the tongue sample was placed in 10% zinc-buffered formalin overnight and stored in 80% ethanol, before embedding in paraffin. For each tongue, 5 μm sections were prepared using a Leica microtome and stained using Periodic Acid-Schiff (PAS) stain. Epithelial invasion was measured from 40× images taken of the entire tissue section of each tongue half with the total area of epithelium and infected epithelium were measured using ImageJ (version 1.6). Measurements were totaled and expressed as a percentage of total infected epithelium relative to the entire epithelial area (Graham et al., 2017; Moyes et al., 2016).
For examination of fungal burden, qPCR was used by amplifying a 269-bp fragment of the internal transcribed spacer 2 (ITS2) between the 5.8S and 28S ribosomal RNA genes of C. albicans (Graham et al., 2017; Khot et al., 2009). DNA was extracted from homogenized tongue tissue using the Yeast DNA Extraction Kit (Thermo Scientific) according to the protocol with minor modifications. The ITS2 fragment was amplified by qPCR was performed with a CFX96 Real-Time System with a C1000 Touch thermal cycler (BioRad). C. albicans gDNA was quantified using FastStart Universal SYBR Green master mix with ROX (Roche). To screen for contamination and background fluorescence during the qPCR amplification, no template controls were used.

Cryptococcus neoformans = experiment: High-throughput Sytox Orange C. elegans infection assay, C. neoformans; format: in vivo; conditions: five days of infection; vs. DMSO control
Experimental: FIGS. 15A-15D: Secondary testing of gain-of-function variants from screen. (FIG. 15A) Survival over time of C. elegans infected with C. albicans and exposed to 1 nM of the indicated peptides. Statistical differences in survival were compared to animals in the exposure condition on the right of the legend (12aa-WT) by Mantel-Cox log rank analysis. An n of 30 animals was used and one representative trial is shown. (FIG. 15B) Percent survival as measured by the high-throughput Sytox Orange assay following five days of infection with C. albicans is shown. Means were calculated with the error bars representing the SEM. Statistical differences in survival were compared to animals in the untreated condition (DMSO) by one-way ANOVA followed by Dunnett's multiple comparison test. An n of 30 animals was used per experimental group. (FIG. 15C) Adhesion of C. albicans to tissue-culture treated plates following incubation with 10 nM of the indicated peptides is shown. […] Means were calculated with the error bars representing the SEM. Statistical significance in comparison to the DMSO control group was determined using one-way ANOVA followed by Tukey's multiple comparison test. […] (FIG. 15D) Percent survival as measured by the high-throughput Sytox Orange assay following five days of infection with C. neoformans is shown. Means were calculated with the error bars representing the SEM. […]

C. albicans [4] = experiment: High-throughput Sytox Orange C. elegans infection assay, C. albicans; format: in vivo; conditions: five days of infection; vs. DMSO control
Experimental: FIGS. 15A-15D: Secondary testing of gain-of-function variants from screen. (FIG. 15A) Survival over time of C. elegans infected with C. albicans and exposed to 1 nM of the indicated peptides. Statistical differences in survival were compared to animals in the exposure condition on the right of the legend (12aa-WT) by Mantel-Cox log rank analysis. An n of 30 animals was used and one representative trial is shown. (FIG. 15B) Percent survival as measured by the high-throughput Sytox Orange assay following five days of infection with C. albicans is shown. Means were calculated with the error bars representing the SEM. Statistical differences in survival were compared to animals in the untreated condition (DMSO) by one-way ANOVA followed by Dunnett's multiple comparison test. An n of 30 animals was used per experimental group. (FIG. 15C) Adhesion of C. albicans to tissue-culture treated plates following incubation with 10 nM of the indicated peptides is shown. A non-adherent strain (Δefg1/Δcph1) was used as a control. Means were calculated with the error bars representing the SEM. Statistical significance in comparison to the DMSO control group was determined using one-way ANOVA followed by Tukey's multiple comparison test. An n of three biological replicates, each with four technical replicates, was used. (FIG. 15D) Percent survival as measured by the high-throughput Sytox Orange assay following five days of infection with C. neoformans is shown. Means were calculated with the error bars representing the SEM. Statistical differences in survival were compared to animals in the untreated condition (DMSO) by one-way ANOVA followed by Dunnett's multiple comparison test. An n of 30 animals was used per experimental group.
High-throughput screening of this library was performed by employing established assays to assess antifungal agent efficacy. […] By using these assays in concert, each individual peptide was assessed using two approaches that probe different aspects of C. albicans virulence.

C. auris = experiment: Survival of C. elegans infected with C. auris; format: in vivo; conditions: 1 nM peptide
Experimental: FIGS. 6A-6D: EntV peptides have activity against many fungal species and strains. Survival over time of C. elegans infected with C. auris, (FIG. 6A), C. neoformans, (FIG. 6B), and C. albicans, (FIG. 6C), paired clinical isolates before (AzS: fluconazole-susceptability) and after gaining fluconazole resistance (AzR), (FIG. 6D). Peptides were added at 1 nM and fluconazole at 4 ug/ml. Statistical differences in survival were compared to animals to the DMSO vehicle control by Mantel-Cox log rank analysis. An n of 60 was used and one representative trial is shown. Exact p values from top to bottom: (FIG. 6A) <0.0001, <0.0001, (FIG. 6B) <0.0001, <0.0001, (FIG. 6C) 0.0013, 0.0004, 0.0035, (FIG. 6D) 0.0050, 0.0040, 0.5539.
EntV peptides have activity against other fungal species and strains. […] Paired clinical isolates of C. albicans, in which fluconazole-resistance had been gained following in-patient evolution were tested and it was determined that animals infected with both the original strain as well as the fluconazole-resistant descendent were protected by EntV ([…]).
Killing of C. elegans by C. albicans. […] Plates were incubated at 25° C., and worm death was scored daily. Kaplan-Meier survival curves were generated and analyzed as described in the quantification and statistical analysis section.

## CC(C)C[C@@H](NC(=O)[C@@H](C)NC(=O)[C@@H](CC(C)C)NC(=O)[C@@H](CCC(N)=O)NC(=O)CNC(=O)[C@@H](C)NC(=O)[C@H](N)C(C)C)C(=O)N[C@H](Cc1c[nH]c2ccccc12)C(=O)N[C@H](C)C(=O)N[C@@H](C(=O)N[C@H](CCC(N)=O)C(=O)N[C@H](CS)C(N)=O)C(C)C [12aa D-form peptide] (H-[dV][dA]G[dQ][dL][dA][dL][dW][dA][dV][dQ][dC]-NH2)
C. albicans [1]
  Protection of C. elegans from C. albicans infection (survival): remained as effective as the original in protecting C. elegans against infection with C. albicans
[2]
  remaining at 24 h, 100 μM: ~35%

## AGQLALWAVQC [11aa]
C. albicans [1]
  Median survival: 9 days and 10 days
C. albicans [3]
  Fungal burden in the tongue (C. albicans DNA by qPCR): reduced fungal burden in the OPC model, but not to the same degree as the 12-mer
  Hyphal (epithelial) invasion of the tongue: some reduction

## GQLALWAVQC [10aa]
C. albicans [1]
  Median survival: 8 days and 9 days
C. albicans [3]
  Fungal burden in the tongue (C. albicans DNA by qPCR): reduced fungal burden in the OPC model, but not to the same degree as the 12-mer
  Hyphal (epithelial) invasion of the tongue: some reduction
Cryptococcus neoformans
  Survival of C. elegans by Sytox Orange assay, C. neoformans: not effective

## LVLAFWAVVC [P3]
C. albicans [1]
  Protection of C. elegans from C. albicans infection (survival): as effective in protecting the animals as the original 12aa peptide
C. albicans [4]
  Survival of C. elegans by Sytox Orange assay, C. albicans: statistically significant antifungal activity

## TNAAAAQQGGIICLLVVWLS [α7 - disrupt]
C. albicans [1]
  Median survival: 6 days

## TNAIIVAGQLALWAVQCG [α7]
C. albicans [1]
  Protection of C. elegans from C. albicans infection (survival): protected C. elegans from C. albicans infection as well or better than full-length, active EntV^68
  Median survival: 10.5 days and 12 days and 11 days and 10 days and 13 days and 14 days
C. auris
  Survival of C. elegans infected with C. auris: protected animals from death

## TNVGALWICGLAVIQAAQLS [α7 - random]
C. albicans [1]
  Median survival: 7 days

## VLLALWALVC [P5]
C. albicans [1]
  Protection of C. elegans from C. albicans infection (survival): as effective in protecting the animals as the original 12aa peptide

## VQLALWAVQC [P4]
C. albicans [1]
  Protection of C. elegans from C. albicans infection (survival): as effective in protecting the animals as the original 12aa peptide
C. albicans [3]
  Fungal burden in the tongue (C. albicans DNA by qPCR): significantly reduced; also recorded: more effective than P1 in reducing fungal burden
  Hyphal (epithelial) invasion of the tongue: significantly reduced
C. albicans [4]
  Survival of C. elegans by Sytox Orange assay, C. albicans: statistically significant antifungal activity

## VVLALWAVQC [P1]
C. albicans [1]
  Protection of C. elegans from C. albicans infection (survival): as effective in protecting the animals as the original 12aa peptide
C. albicans [3]
  Fungal burden in the tongue (C. albicans DNA by qPCR): significantly reduced
  Hyphal (epithelial) invasion of the tongue: significantly reduced
C. albicans [4]
  Survival of C. elegans by Sytox Orange assay, C. albicans: statistically significant antifungal activity
